Here are results for 14 compounds from US20240132485A1, “HETEROCYCLIC CULLIN RING UBIQUITIN LIGASE COMPOUNDS AND USES THEREOF” (CEMM - FORSCHUNGSZENTRUM FÜR MOLEKULARE MEDIZIN GMBH, priority 2020, published 2024).

The target of assay [1] is T1, DDB1-CDK12/Cyclin K ternary complex (Homo sapiens, UniProt Q16531+Q9NYV4).
T1 construct: expressed in transfected cells; host or cells: HEK293T wildtype cells, transient PEI transfection
As to the kind of experiment: NanoBRET fold-change assay (HaloTag_CDK12 / NanoLuc_DDB1 in HEK293T). In kind it is cell-based. To be noted: 10 μM compound, 10 minutes. As to the method:
This assay measures the interaction/recruitment of CDK12/Cyclin K to DDB1, mechanistically validating the molecular glue pharmacology.
HEK293T wildtype cells are seeded 800 k cells/well (DMEM+10% FBS+1% PS) in a 6-well plate and allowed to attach for ˜7 hours followed by a transient transfection of 1.5 μg HaloTag_CDK12 Plasmid [Table 1] and 0.15 μg NanoLuc_DDB1 plasmid [Table 1] per well using PEI. Cells are incubated at 37° C., 5% CO2, harvested after 24 hours and resuspended in assay media (Opti-MEM Reduced serum media, no phenol red, 4% FBS, 1% PS). Cells are adjusted to 2.3×10^5 cells/ml and treated with HaloTag 618 Ligand at 100 nM or DMSO. 8000 cells are seeded per well in triplicates per compound in a white-walled 384-well plate, one negative control treated with DMSO instead of HaloTag 618 Ligand is seeded in triplicates and the 384-well plate is incubated at 37° C., 5% CO2 overnight. Compound stock solutions are prepared in Opti-MEM−/− (Opti-MEM I Reduced serum media, no phenol red) at 8× and used to treat the cells at a final concentration of 1× at 10 μM. Cells and compounds are incubated for 10 minutes at room temperature followed by addition of NanoBRET Nano-Glo substrate following manufacturer's protocols. The plate is shaken for 30 sec followed by immediate measurement of donor emission (NanoBRET Blue at 460 nm) and acceptor emission (BRET Deep Red at 647 nm) for 0.5 s.
On the technique in general: In BRET a luciferase serves as donor, and the signal depends on an acceptor being close.

The next assay deals with KBM7 cells (wild-type). As to the kind of experiment: KBM7 CTG EC50 assay (UBE2M wild-type). To be noted: for EC50: Homo sapiens, KBM-7, 72 h incubation, CellTiter-Glo, read-out: KBM7 CTG EC50 (UBE2M wild-type) Activity Class; for Ratio UBE2M WT to KO: ratio of anti-proliferative activity in KBM7 wild-type versus UBE2M knock-out cells (fold). In kind it is cell-based, human. The text has this: (§1) This is a cell viability assay to measure the desired therapeutic effect, i.e. killing of cancer cells. The UBE2M mutant cell line has impaired activity of the Cullin-RING ligase system due to a hypomorphic mutation in UBE2M, which is required for activation of these E3 ligases. By comparison with WT cells, it is possible to estimate the contribution of Cyclin K degradation (which is reduced in UBE2M mut cells) compared to kinase inhibition of CDK12 (which is unaffected in UBE2M mut cells). Since the UBE2M mutation only reduces CRL function without fully abrogating it, this assay may slightly underestimate the effect of degradation because, at high compound concentrations, degradation may still be observed.
(§2) KBM7 cells (wild-type or harboring α hypomorphic UBE2M mutation (Mayor-Ruiz et al., 2019)) were seeded in a white opaque 384-well plate at a density of 1000 cells per well in duplicate, in full medium (IMDM+10% FBS+1% penicillin-streptomycin). Cells were treated with compounds in a 10-point titration with a dilution factor of 1:4 (range: 0 to 20 μM). After 72 h of incubation, the cell viability was determined using the CellTiter-Glo® 2.0 reactant (Promega), pre-diluted 1:4 in mQ water. The luminescence signal was measured using the multimode plate reader EnVision 2105 (Perkin Elmer).
In general terms: Cellular ATP, detected with luciferase, serves as a proxy for viable cell number.

Assay [2] deals with KBM7 cells harboring a hypomorphic UBE2M mutation. As to the kind of experiment: KBM7 CTG EC50 assay (UBE2M knock-out). Type of assay: cell-based. The conditions noted are these: Homo sapiens, KBM-7; 72 h incubation, CellTiter-Glo; read-out: KBM7 CTG EC50 (UBE2M knock-out) Activity Class.
Text: as §1, §2

The test system of another assay is CCNK. As to the kind of experiment: NanoLuc-CCNK degradation assay (HEK293T_Nluc_CCNK-tagged cells). In kind it is cell-based. The conditions noted are these: 4 h incubation, HEK293T_Nluc_CCNK-tagged cells; for DC50: read-out: NanoLuc-CCNK degradation DC50 Activity Class. On the procedure:
The assay helps to elucidate the mechanistic explanation of the cell killing effect of the compounds of the present invention. Cyclin K is fused to a nanoluciferase, light emission is measured as a proxy of Cyclin K abundance. Potency of Cyclin K degradation and cytotoxicity of KBM7 correlate extremely well, further supporting Cyclin K degradation being the main driver of the cell killing, as opposed to inhibition of CDK12 catalytic activity.
HEK293T_Nluc_CCNK-tagged cells were engineered by integrating a nanoluciferase tag at the N-terminus of the endogenous locus of CCNK using CRISPR-Cas9 technology. Briefly, 5.5 million HEK293T cells were co-transfected by PEI with a 1:1 ratio of cutting vector (sgRNA: […]) and repair template (4 μg total plasmid) as previously described (Brand and Winter, 2019). The repair sequence comprises a cassette of puromycinR-P2A-HA-Nluc-(G4S)3 (P2A: self-cleaving peptide 2A, HA: HA-tag, (G4S)3: flexible linker), surrounded by 20-nucleotide microhomologies matching the genomic locus. After 3 days of incubation, the recombinant population was selected by puromycin treatment (2 μg/ml, 5-day treatment). A monoclonal population was obtained by limiting dilution and cassette integration validated by Sanger sequencing.
HEK293T_Nluc_CCNK-tagged cells were seeded in a white opaque 384-well plate at a density of 8000 cells per well in duplicate, in full medium (Opti-MEM I+4% FBS+1% PS). Cells were treated with compounds in a 10-point titration (range: 0 to 10 μM, 1:4 dilution). After 4 h of incubation, Nano-Glo substrate (Promega), pre-diluted in serum-free medium (Opti-MEM I), was added to the cells (1:500 final dilution). The luminescence signal was directly measured using the multimode plate reader EnVision 2105 (Perkin Elmer).

T1 sequence (Q9NYV4 whole entry): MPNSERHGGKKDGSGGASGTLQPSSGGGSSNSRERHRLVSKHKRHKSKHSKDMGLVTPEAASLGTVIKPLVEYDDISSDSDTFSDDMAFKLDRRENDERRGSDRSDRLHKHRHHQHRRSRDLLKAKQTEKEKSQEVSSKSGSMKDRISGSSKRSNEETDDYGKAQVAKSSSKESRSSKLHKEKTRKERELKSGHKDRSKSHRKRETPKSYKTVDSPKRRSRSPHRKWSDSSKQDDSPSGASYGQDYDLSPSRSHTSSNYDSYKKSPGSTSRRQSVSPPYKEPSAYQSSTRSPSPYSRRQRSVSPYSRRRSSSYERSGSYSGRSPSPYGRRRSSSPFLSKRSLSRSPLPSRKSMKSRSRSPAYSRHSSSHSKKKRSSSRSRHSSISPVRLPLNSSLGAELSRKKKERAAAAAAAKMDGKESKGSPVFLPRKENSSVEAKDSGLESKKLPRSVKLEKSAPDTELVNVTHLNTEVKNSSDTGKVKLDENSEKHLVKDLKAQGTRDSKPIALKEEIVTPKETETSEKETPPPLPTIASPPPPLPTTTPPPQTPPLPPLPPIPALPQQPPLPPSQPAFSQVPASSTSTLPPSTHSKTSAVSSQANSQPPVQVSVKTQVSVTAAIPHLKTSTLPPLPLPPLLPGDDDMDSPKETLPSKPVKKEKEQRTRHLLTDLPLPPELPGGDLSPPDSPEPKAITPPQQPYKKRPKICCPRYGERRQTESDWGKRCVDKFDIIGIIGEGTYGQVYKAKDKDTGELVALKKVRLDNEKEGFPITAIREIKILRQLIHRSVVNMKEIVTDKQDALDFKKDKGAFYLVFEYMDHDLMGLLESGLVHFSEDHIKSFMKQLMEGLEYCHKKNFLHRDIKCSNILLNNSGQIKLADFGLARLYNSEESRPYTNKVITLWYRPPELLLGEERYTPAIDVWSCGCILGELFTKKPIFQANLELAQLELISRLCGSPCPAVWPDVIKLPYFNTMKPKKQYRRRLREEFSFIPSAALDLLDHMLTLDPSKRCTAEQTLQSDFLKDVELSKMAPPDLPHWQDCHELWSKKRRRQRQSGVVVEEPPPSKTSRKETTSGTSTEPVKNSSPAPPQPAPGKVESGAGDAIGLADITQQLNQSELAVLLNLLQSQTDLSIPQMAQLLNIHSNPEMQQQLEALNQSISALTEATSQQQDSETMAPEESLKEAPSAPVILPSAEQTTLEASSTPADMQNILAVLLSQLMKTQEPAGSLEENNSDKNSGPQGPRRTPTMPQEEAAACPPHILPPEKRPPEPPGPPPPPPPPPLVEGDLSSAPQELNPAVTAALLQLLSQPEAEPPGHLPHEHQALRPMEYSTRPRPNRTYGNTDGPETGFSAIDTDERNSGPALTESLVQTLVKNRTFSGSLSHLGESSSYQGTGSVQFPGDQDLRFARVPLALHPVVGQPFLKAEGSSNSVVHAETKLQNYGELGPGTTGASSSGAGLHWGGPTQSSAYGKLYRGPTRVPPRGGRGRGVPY
T1 sequence (Q16531 whole entry): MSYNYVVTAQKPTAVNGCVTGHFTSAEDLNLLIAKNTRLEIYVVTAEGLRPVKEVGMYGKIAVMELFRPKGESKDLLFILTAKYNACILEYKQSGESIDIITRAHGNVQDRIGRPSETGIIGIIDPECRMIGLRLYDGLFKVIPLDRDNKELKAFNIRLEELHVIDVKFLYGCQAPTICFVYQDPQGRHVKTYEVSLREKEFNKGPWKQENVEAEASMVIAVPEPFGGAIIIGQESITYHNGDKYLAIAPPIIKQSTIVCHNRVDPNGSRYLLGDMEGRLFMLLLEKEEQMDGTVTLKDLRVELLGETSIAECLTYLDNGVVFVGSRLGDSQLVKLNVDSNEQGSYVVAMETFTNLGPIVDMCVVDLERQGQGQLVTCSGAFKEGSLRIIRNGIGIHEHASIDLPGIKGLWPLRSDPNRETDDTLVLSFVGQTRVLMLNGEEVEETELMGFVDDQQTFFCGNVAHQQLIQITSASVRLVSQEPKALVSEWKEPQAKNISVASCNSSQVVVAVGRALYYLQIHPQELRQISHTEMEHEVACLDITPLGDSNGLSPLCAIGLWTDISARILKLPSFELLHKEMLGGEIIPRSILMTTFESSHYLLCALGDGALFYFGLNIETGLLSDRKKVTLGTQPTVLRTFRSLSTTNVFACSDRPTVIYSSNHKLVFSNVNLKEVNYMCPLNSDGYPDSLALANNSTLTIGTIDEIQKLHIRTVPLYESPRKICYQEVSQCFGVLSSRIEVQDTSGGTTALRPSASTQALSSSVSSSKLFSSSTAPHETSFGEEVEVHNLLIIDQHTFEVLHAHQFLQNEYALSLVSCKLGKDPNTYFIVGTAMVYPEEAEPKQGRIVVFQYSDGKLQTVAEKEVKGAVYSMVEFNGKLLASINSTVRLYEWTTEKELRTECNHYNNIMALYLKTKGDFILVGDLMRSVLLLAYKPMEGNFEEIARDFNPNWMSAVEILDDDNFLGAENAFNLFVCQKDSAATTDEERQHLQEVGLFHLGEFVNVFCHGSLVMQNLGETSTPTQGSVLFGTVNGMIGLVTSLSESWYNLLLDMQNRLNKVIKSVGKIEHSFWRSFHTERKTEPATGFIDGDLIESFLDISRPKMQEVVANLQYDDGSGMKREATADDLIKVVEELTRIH
T1 sequence (O75909 whole entry partner): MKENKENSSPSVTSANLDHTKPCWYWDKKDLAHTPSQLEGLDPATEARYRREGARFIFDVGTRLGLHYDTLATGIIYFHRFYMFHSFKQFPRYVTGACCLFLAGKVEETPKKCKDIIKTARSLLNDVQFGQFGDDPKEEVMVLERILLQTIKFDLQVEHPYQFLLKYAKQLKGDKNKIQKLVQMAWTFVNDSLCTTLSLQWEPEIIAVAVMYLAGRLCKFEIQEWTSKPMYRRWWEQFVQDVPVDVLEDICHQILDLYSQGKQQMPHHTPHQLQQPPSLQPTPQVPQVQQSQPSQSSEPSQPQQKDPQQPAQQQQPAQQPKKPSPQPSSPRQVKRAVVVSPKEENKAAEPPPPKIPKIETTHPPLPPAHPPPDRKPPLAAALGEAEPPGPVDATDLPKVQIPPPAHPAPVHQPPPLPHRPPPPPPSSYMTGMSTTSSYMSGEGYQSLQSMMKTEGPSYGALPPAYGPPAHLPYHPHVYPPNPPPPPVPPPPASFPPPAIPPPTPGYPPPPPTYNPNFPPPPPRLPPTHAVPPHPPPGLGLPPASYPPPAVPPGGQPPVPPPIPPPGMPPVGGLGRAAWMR

On to `Cc1ccc2c(CC(=O)Nc3cc(C4CC4)[nH]n3)coc2c1C` [Example 3-46, N-(5-cyclopropyl-1H-pyrazol-3-yl)-2-(6,7-dimethylbenzofuran-3-yl)acetamide], for which the “NanoBRET fold-change Activity Class” value in assay [1] is given as “B (3-4 fold increase)”. In addition, in the assay on KBM7 cells (wild-type), the half-maximal effective concentration (EC50) was 0.5 to 1 µM and the “Ratio UBE2M WT to KO” value is reported as over 10. Also, the EC50 in assay [2] was over 10 µM. For the same compound, in the assay on CCNK, the “NanoLuc-CCNK degradation DC50 Activity Class” value was “D (10 μM≤DC50<1.0 μM)”.
As for `O=C(Nc1ncc(C(F)(F)F)s1)C1CC(=O)N(c2ccc3c(c2)OCO3)C1` (stereo not shown) [Example 3-25, 1-(benzo[d][1,3]dioxol-5-yl)-5-oxo-N-(5-(trifluoromethyl)thiazol-2-yl)pyrrolidine-3-carboxamide], in assay [1], the “NanoBRET fold-change Activity Class” value is “B (3-4 fold increase)”. Moreover, the EC50 in the assay on KBM7 cells (wild-type) was 0.25 to 0.5 µM; in assay [2], over 10 µM. For the same compound, the “Ratio UBE2M WT to KO” value in the assay with KBM7 cells (wild-type) is over 10. Also, the DC50 in the assay with CCNK is over 10 µM.
With `O=C(Nc1ncc(C(F)(F)F)s1)C1CC(=O)N(c2ccc(F)cc2)C1` (stereo not shown) [Example 3-26, 1-(4-fluorophenyl)-5-oxo-N-(5-(trifluoromethyl)thiazol-2-yl)pyrrolidine-3-carboxamide], in assay [1], the “NanoBRET fold-change Activity Class” value is reported as “C (2-3 fold increase)”. Further, the EC50 in the assay with KBM7 cells (wild-type) is 1 to 10 µM; in assay [2], over 10 µM. Moreover, the “Ratio UBE2M WT to KO” value with KBM7 cells (wild-type) was over 5. The DC50 in the assay with CCNK was over 10 µM.
On to `O=C(Cc1cn2cc(F)ccc2n1)Nc1cc(Br)[nH]n1` [Example 3-58, N-(5-bromo-1H-pyrazol-3-yl)-2-(6-fluoroimidazo[1,2-a]pyridin-2-yl)acetamide], for which the “NanoBRET fold-change Activity Class” value in assay [1] was “C (2-3 fold increase)”. Moreover, in the assay on KBM7 cells (wild-type), the EC50 was at most 0.25 µM and the “Ratio UBE2M WT to KO” value was over 10. Also, in assay [2], the EC50 is over 10 µM. For the same compound, the DC50 in the assay with CCNK was over 10 µM.
Regarding `CC(C)c1ccc(NC(=O)Cc2cn3cc(F)ccc3n2)nc1` [Example 3-61, 2-(6-fluoroimidazo[1,2-a]pyridin-2-yl)-N-(5-isopropylpyridin-2-yl)acetamide], the “NanoBRET fold-change Activity Class” value in assay [1] is on record as “A (greater than 4-fold increase)”. For the same compound, in the assay on KBM7 cells (wild-type), the EC50 is at most 0.25 µM and the “Ratio UBE2M WT to KO” value is over 20. The concentration giving a half-maximal response (EC50) in assay [2] was over 10 µM. Besides, the “NanoLuc-CCNK degradation DC50 Activity Class” value with CCNK was “B (0.50 μM≤DC50<0.10 μM)”.
With `Cc1ccc(N2CC(C(=O)Nc3ncc(C(F)(F)F)s3)CC2=O)cc1` (stereo not shown) [Example 3-16, 5-oxo-1-(p-tolyl)-N-(5-(trifluoromethyl)thiazol-2-yl)pyrrolidine-3-carboxamide], in assay [1], the “NanoBRET fold-change Activity Class” value is given as “C (2-3 fold increase)”. In addition, in the assay on KBM7 cells (wild-type), the EC50 lay in the range of 0.25 to 0.5 µM and the “Ratio UBE2M WT to KO” value is listed as over 10. The EC50 in assay [2] was over 10 µM. Moreover, the “NanoLuc-CCNK degradation DC50 Activity Class” value with CCNK is given as “C (1.0 μM≤DC50<0.50 μM)”.
Turning to `O=C(Nc1ncc(C(F)(F)F)s1)C1CC(=O)N(Cc2ccccc2)C1` (stereo not shown) [Example 3-27, 1-benzyl-5-oxo-N-(5-(trifluoromethyl)thiazol-2-yl)pyrrolidine-3-carboxamide], the “NanoBRET fold-change Activity Class” value in assay [1] was “B (3-4 fold increase)”. In the assay on KBM7 cells (wild-type), the EC50 was at most 0.25 µM and the “Ratio UBE2M WT to KO” value is on record as over 10. Also, in assay [2], the EC50 is over 10 µM. In the assay with CCNK, the DC50 is at most 0.1 µM.
On to `O=C(Cc1cncc2ccccc12)Nc1ncc(C(F)(F)F)s1` [Example 3-34, 2-(isoquinolin-4-yl)-N-(5-(trifluoromethyl)thiazol-2-yl)acetamide], for which the “NanoBRET fold-change Activity Class” value in assay [1] is given as “C (2-3 fold increase)”. In addition, the EC50 was 1 to 10 µM in the assay with KBM7 cells (wild-type) and over 10 µM in assay [2]. In the assay on KBM7 cells (wild-type), the “Ratio UBE2M WT to KO” value is over 3. In addition, in the assay with CCNK, the DC50 was over 10 µM.
Regarding `Cc1ccc2c(ccn2CC(=O)Nc2ncc(C(F)(F)F)s2)c1` [Example 3-37, 2-(5-methyl-1H-indol-1-yl)-N-(5-(trifluoromethyl)thiazol-2-yl)acetamide], the “NanoBRET fold-change Activity Class” value in assay [1] is listed as “C (2-3 fold increase)”. For the same compound, in the assay with KBM7 cells (wild-type), the EC50 fell in the range of 1 to 10 µM and the “Ratio UBE2M WT to KO” value is listed as over 4. In assay [2], the EC50 was over 10 µM. In the assay with CCNK, the DC50 was over 10 µM.
Consider `Cc1cccn2cc(CC(=O)Nc3ncc(C(F)(F)F)s3)nc12` [Example 3-7, 2-(8-methylimidazo[1,2-a]pyridin-2-yl)-N-(5-(trifluoromethyl)thiazol-2-yl)acetamide], for which, in assay [1], the “NanoBRET fold-change Activity Class” value was “B (3-4 fold increase)”. In the assay on KBM7 cells (wild-type), the EC50 was at most 0.25 µM and the “Ratio UBE2M WT to KO” value is on record as 42.4. The EC50 in assay [2] was in the range of 1 to 10 µM. Moreover, the DC50 with CCNK was over 10 µM.
In the same order, the values of `O=C(Cc1cn2cc(F)ccc2n1)Nc1cc(Cl)[nH]n1` [Example 3-60, N-(5-chloro-1H-pyrazol-3-yl)-2-(6-fluoroimidazo[1,2-a]pyridin-2-yl)acetamide] are “C (2-3 fold increase)”, 1 to 10 µM, over 9, over 10 µM and over 10 µM.
Taken in the same sequence, the figures for `Cc1ccc2ncn(CC(=O)Nc3ncc(C(F)(F)F)s3)c2c1` [Example 3-15, 2-(6-methyl-1H-benzo[d]imidazol-1-yl)-N-(5-(trifluoromethyl)thiazol-2-yl)acetamide] were “D (1-2 fold increase)”, 1 to 10 µM, over 4, over 10 µM and over 10 µM.
With `Cc1c(CC(=O)Nc2ncc(C(F)(F)F)s2)sc2ccccc12` [Example 3-12, 2-(3-methylbenzo[b]thiophen-2-yl)-N-(5-(trifluoromethyl)thiazol-2-yl)acetamide], in assay [1], the “NanoBRET fold-change Activity Class” value was “D (1-2 fold increase)”. For the same compound, in the assay with KBM7 cells (wild-type), the EC50 is over 10 µM and the “Ratio UBE2M WT to KO” value is listed as over 10. In assay [2], the EC50 is over 10 µM. For the same compound, in the assay with CCNK, the DC50 was over 10 µM.
Take `Cc1cccn2c(CC(=O)Nc3ncc(C(F)(F)F)s3)cnc12` [Example 3-6, 2-(8-methylimidazo[1,2-a]pyridin-3-yl)-N-(5-(trifluoromethyl)thiazol-2-yl)acetamide]: the “NanoBRET fold-change Activity Class” value in assay [1] is recorded as “C (2-3 fold increase)”. In addition, in the assay on KBM7 cells (wild-type), the EC50 was at most 0.25 µM and the “Ratio UBE2M WT to KO” value is listed as 129.4. Further, the EC50 in assay [2] lay in the range of 1 to 10 µM. The “NanoLuc-CCNK degradation DC50 Activity Class” value with CCNK was “D (10 μM≤DC50<1.0 μM)”.

What is called EC50 is the concentration needed to bring the measured effect to its halfway point. A word on the DC50: it is the concentration at which degradation of the target reaches its halfway point.
